Consider three compounds from PMC3234165 (Biochemistry, 2011).

A value given as a limit tells only on which side of the number the result lay.

In one test the test system is SF-268. In words: Multiplex cytotoxicity assay. It is filed as cell-based. The conditions noted are these: Homo sapiens, SF-268, read-out: IC50 SF-268.
In test [1] the target is NET (norepinephrine transporter) (Homo sapiens, UniProt P23975). Briefly: NIMH PDSP secondary binding assay.
Test [2] has as its target pure guinea pig sigma-1 receptor (Cavia porcellus, UniProt Q60492). In words: Competitive displacement of [3H]-. Type of test: binding. A general note: Displacement assays read how much labelled ligand stays bound in the presence of the test substance.
The target of the next test is Kv1.4 potassium channel (Rattus norvegicus, UniProt P15385+Q9R0C9). Briefly: Whole cell patch clamp, HEK-293 cells co-expressing Kv1.4 and sigma-1 receptor. Type of test: cell-based. (In general: Patch clamp records ionic current or voltage across a cell membrane.)
In test [3] the target is M4 (muscarinic acetylcholine receptor type 4) (Homo sapiens, UniProt P08173). Briefly: NIMH PDSP secondary binding assay.
Chain of M4 (muscarinic acetylcholine receptor type 4) (P08173 whole entry): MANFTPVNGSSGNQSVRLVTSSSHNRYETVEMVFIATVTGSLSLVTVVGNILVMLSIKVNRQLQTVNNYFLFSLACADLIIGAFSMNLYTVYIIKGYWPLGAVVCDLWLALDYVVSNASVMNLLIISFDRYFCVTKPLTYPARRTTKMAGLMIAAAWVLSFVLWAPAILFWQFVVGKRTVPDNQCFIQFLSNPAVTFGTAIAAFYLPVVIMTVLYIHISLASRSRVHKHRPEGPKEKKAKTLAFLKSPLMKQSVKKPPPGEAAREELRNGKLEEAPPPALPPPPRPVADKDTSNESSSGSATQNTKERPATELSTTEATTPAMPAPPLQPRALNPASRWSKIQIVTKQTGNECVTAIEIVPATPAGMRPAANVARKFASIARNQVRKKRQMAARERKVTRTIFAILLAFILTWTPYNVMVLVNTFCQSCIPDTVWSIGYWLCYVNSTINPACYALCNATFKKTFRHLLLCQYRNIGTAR
The test system of a further test is Du145. Briefly: Multiplex cytotoxicity assay. Type of test: cell-based. The conditions noted are these: Homo sapiens, DU-145, read-out: IC50 Du145.
The next test deals with HCT-15. In words: Multiplex cytotoxicity assay. Type of test: cell-based. Particulars: Homo sapiens, HCT-15, read-out: IC50 HCT-15.
In test [4] the target is 5HT1B (serotonin receptor subtype 1B) (Homo sapiens, UniProt P28222). In words: NIMH PDSP secondary binding assay.
Chain of 5HT1B (serotonin receptor subtype 1B) (P28222 whole entry, species assumed): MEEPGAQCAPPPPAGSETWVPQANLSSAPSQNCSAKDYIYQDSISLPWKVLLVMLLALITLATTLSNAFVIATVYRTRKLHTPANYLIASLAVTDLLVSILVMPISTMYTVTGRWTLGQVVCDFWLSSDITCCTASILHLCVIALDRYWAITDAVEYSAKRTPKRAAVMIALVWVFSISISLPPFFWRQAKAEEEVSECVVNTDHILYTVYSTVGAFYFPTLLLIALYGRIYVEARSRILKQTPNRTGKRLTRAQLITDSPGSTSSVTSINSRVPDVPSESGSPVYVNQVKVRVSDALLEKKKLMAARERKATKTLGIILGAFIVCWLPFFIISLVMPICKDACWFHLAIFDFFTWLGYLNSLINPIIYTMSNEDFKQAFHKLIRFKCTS
For test [5], the target named is H1 (histamine receptor type 1) (Homo sapiens, UniProt P35367). In words: NIMH PDSP secondary binding assay.
Chain of H1 (histamine receptor type 1) (P35367 whole entry): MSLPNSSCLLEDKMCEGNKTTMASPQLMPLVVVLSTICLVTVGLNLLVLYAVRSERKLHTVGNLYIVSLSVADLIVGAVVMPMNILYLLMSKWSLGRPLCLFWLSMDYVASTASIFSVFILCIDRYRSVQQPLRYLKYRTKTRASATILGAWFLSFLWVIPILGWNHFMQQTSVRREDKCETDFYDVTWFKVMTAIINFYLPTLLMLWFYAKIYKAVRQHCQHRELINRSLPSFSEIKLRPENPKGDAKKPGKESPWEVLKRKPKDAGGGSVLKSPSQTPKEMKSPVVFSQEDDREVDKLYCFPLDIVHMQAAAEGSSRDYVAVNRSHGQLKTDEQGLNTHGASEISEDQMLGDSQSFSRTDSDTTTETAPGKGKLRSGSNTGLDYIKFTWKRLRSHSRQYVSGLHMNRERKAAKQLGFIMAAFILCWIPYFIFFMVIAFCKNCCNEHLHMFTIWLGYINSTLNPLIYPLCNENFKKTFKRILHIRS
The target in test [6] is H2 (histamine receptor type 2) (Homo sapiens, UniProt P25021). In words: NIMH PDSP secondary binding assay.
Chain of H2 (histamine receptor type 2) (P25021 whole entry): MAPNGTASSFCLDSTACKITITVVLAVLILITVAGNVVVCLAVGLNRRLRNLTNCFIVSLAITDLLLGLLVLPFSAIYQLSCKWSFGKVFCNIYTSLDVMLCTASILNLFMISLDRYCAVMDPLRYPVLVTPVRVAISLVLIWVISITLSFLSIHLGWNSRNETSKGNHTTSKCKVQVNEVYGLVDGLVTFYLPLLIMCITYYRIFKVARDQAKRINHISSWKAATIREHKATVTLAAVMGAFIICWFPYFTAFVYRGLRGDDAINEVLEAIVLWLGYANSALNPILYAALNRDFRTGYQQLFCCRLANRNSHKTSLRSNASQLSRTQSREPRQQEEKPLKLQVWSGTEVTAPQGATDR
The target of test [7] is H3 (histamine receptor type 3) (Homo sapiens, UniProt Q9Y5N1). Briefly: NIMH PDSP secondary binding assay.
Chain of H3 (histamine receptor type 3) (Q9Y5N1 whole entry): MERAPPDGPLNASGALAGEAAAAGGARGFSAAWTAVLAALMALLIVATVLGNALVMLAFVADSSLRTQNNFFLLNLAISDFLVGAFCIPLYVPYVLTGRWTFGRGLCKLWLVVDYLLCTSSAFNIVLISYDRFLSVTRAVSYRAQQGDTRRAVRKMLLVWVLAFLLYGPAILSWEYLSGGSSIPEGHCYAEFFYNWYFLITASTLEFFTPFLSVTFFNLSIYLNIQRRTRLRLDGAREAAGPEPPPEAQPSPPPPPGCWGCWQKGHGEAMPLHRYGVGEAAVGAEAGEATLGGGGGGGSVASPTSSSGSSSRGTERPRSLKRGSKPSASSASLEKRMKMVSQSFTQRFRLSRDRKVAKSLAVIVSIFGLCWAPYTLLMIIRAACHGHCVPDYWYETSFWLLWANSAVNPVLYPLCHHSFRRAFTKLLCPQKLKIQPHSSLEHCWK
The target in test [8] is M2 (muscarinic acetylcholine receptor type 2) (Homo sapiens, UniProt P08172). Briefly: NIMH PDSP secondary binding assay.
Chain of M2 (muscarinic acetylcholine receptor type 2) (P08172 whole entry): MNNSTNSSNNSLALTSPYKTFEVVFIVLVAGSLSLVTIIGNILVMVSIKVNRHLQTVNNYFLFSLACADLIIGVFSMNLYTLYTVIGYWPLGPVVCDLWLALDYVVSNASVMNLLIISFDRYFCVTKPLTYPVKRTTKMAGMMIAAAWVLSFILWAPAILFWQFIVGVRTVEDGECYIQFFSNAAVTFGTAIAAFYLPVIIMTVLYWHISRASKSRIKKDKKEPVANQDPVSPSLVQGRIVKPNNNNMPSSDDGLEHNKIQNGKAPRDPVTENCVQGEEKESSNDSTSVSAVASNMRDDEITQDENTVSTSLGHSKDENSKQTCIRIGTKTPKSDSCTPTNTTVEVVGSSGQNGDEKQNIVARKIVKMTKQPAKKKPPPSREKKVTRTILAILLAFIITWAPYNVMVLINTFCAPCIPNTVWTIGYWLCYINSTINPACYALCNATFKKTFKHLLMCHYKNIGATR
A further test deals with NCI-H460. Briefly: Multiplex cytotoxicity assay. It is filed as cell-based. Particulars: Homo sapiens, NCI-H460, read-out: IC50 NCI-H460.
Test [9] has as its target M3 (muscarinic acetylcholine receptor type 3) (Homo sapiens, UniProt P20309). In words: NIMH PDSP secondary binding assay.
A further test deals with H1299. In words: Multiplex cytotoxicity assay. Type of test: cell-based. Particulars: Homo sapiens, NCI-H1299, read-out: IC50 H1299.
Another test relates to HT-29. Briefly: Multiplex cytotoxicity assay. The conditions noted are these: Homo sapiens, HT-29, read-out: IC50 HT-29. It is filed as cell-based.
The target of test [10] is D4 (dopamine receptor type 4) (Homo sapiens, UniProt P21917). Briefly: NIMH PDSP secondary binding assay.
Chain of D4 (dopamine receptor type 4) (P21917 whole entry): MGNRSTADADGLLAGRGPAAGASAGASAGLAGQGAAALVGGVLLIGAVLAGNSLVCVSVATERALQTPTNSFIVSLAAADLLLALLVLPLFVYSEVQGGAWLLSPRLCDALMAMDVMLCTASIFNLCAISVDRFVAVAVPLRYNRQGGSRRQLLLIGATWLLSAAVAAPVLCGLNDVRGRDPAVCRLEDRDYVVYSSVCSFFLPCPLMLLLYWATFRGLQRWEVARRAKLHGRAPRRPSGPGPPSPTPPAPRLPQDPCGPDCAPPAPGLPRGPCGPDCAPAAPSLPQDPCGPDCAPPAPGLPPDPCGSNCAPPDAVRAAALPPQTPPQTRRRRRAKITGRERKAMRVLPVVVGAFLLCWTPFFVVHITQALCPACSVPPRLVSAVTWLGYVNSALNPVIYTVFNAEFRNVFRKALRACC
Test [11] has as its target sigma-1 receptor (sigma-1 sites) (Cavia porcellus, UniProt Q60492). Briefly: Competitive displacement of [3H]-. Type of test: binding, guinea pig.

Chain of NET (norepinephrine transporter) (P23975 whole entry, species assumed): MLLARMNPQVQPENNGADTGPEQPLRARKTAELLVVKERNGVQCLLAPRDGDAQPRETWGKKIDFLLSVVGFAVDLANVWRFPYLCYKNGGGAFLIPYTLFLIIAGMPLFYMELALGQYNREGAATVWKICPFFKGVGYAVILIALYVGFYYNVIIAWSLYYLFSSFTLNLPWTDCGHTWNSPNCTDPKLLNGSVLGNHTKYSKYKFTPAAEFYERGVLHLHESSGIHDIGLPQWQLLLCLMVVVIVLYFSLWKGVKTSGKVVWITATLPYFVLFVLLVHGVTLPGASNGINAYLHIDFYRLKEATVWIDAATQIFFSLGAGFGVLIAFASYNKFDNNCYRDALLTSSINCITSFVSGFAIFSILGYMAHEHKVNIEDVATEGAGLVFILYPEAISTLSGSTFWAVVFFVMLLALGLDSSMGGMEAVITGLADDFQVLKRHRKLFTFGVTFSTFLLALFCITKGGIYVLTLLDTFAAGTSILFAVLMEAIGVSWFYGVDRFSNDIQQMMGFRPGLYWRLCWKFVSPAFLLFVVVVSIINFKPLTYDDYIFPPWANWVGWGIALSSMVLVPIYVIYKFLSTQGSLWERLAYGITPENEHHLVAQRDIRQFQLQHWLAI
Chain of M3 (muscarinic acetylcholine receptor type 3) (P20309 whole entry): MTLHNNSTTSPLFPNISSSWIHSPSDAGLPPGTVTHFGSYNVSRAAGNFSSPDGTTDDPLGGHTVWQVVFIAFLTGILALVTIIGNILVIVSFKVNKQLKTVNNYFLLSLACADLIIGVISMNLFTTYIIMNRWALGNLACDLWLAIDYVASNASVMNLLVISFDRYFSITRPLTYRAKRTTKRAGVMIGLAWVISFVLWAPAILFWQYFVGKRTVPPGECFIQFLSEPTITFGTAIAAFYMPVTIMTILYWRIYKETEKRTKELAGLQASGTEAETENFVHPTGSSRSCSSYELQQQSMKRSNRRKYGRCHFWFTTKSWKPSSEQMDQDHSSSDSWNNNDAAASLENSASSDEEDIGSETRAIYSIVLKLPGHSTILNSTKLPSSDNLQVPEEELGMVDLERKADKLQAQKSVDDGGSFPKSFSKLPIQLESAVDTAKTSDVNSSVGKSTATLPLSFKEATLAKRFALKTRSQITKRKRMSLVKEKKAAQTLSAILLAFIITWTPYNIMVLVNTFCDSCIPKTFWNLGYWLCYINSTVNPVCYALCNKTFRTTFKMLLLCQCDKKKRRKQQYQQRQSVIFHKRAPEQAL
Chain of pure guinea pig sigma-1 receptor (Q60492 whole entry): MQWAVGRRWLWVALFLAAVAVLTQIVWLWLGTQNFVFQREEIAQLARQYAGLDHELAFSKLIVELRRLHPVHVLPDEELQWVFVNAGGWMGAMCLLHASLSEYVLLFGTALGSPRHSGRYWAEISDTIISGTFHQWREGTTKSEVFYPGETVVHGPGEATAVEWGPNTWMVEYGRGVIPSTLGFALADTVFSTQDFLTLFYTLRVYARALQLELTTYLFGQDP
Chain of sigma-1 receptor (sigma-1 sites) (Q60492 whole entry): as above

As to `CCCCCCCNCCCc1ccccc1` [2a, N-(3-Phenylpropyl)heptan-1-amine], the IC50 – broadly, the concentration that gives 50% inhibition – in the test with SF-268 is 63 ± 2 µM; against Kv1.4 potassium channel, 10 µM; with Du145, 25 ± 1 µM; with HCT-15, 18 ± 12 µM; in the test with NCI-H460, 45 ± 5 µM; in the test with H1299, 39 ± 6 µM. In addition, in the test on HT-29, the IC50 turned out to be 40 ± 1 µM. Moreover, the Ki (as a rule, the dissociation constant of the complex between target and ligand, obtained from inhibition or displacement) in test [1] is over 10 µM; in test [2], 0.018 ± 0.014 µM; in [3], over 10 µM; in [4], over 10 µM; in test [5] it was over 10 µM; in [6], over 10 µM. Also, the Ki in [7], in test [8] and in [9] was over 10 µM throughout.
As to `CCCCCCCCCCCCNCCCc1ccccc1` [3a, N-(3-Phenylpropyl)dodecan-1-amine], the IC50 with SF-268 is 60 ± 14 µM; with Du145, 51 ± 4 µM; with HCT-15 it was over 100 µM; in the test with NCI-H460, 55 ± 3 µM; with H1299, 39 ± 0.1 µM; with HT-29, 42 ± 21 µM. The Ki in test [1], in test [3], in test [4], in test [5], in test [6] and in [7] was over 10 µM throughout. Besides, the Ki in [8], in test [9] and in [10] was over 10 µM each time.
As to `CCCCCCCCCCCCNCCCc1ccc([N+](=O)[O-])cc1` [3b, N-(3-(4-Nitrophenyl)propyl)dodecan-1-amine], the IC50 in the test on SF-268 worked out at 16 ± 1 µM; in the test with Du145 it was 17 ± 0.4 µM; in the test with HCT-15 it was 25 µM; in the test on NCI-H460, 18 ± 2 µM; in the test with H1299 it was 13 ± 1 µM; in the test on HT-29, 14 ± 0.2 µM. Besides, the Ki in [1] is over 10 µM; in test [11], 5.1 ± 0.2 µM; in [4], over 10 µM; in [5], over 10 µM; in [7], over 10 µM.
